102 compounds from ChEMBL document CHEMBL3507680, “University of Dundee, Gates Library screen for HepG2 cell viability” can be followed below.

A short description of the series: Human HepG2 cell viability assay in 384 well format. As to conditions: HepG2 cells, read-out: Inhibition. The class given is toxicity, cell-based. More on the design: dose 125 nL, time 70.5 hour; cytotoxicity at 70.5 h: concentration not given beside the values.
Consider `Cc1ccc(CC(=O)N2CCC(Nc3cccnn3)CC2)s1`, for which the cytotoxicity at 70.5 h worked out at 0.908%.
Next, `COCC(c1cccc(C(F)(F)F)c1)N(C)C(=O)c1cccnc1` (configuration not stated): -1.51%; `CC(C(=O)N1CCCN(Cc2cnn(C)c2)CC1)n1ccnc1` (configuration not stated): 23.2%.
Next, `Cc1ccc(C(=O)NC(CN2CCCC2=O)c2ccccc2)cn1` (configuration not stated): 2.77%; `CC(C)c1ccc(OCCC(=O)N2CCC(C(=O)N(C)C)CC2)cc1`: -3.99%.
The figure for `Cc1nccc(C(=O)NC(CN2CCCC2=O)c2ccccc2)n1` (configuration not stated) is -3.75%.
For the compound `COc1c(CNCc2ccnc(N(C)C)c2)c(C(C)C)nn1C`, the cytotoxicity at 70.5 h turned out to be 0.688%.
Regarding `CC(C)c1nn(C)c(N(C)C)c1CNCc1ccc(N(C)C)nc1`, the cytotoxicity at 70.5 h was 3.68%.
Next, `CC(C(=O)N1CCN(Cc2ccc3c(c2)OCO3)CC1)n1ccnc1` (configuration not stated): 0.67%.
The figure for `CCNC(=O)NC(=O)CN1CCC(c2cccc(F)c2)C1` (configuration not stated) is -2.05%; for `CCn1c(CN2CCN(C(=O)C3CCC3)CC2)nc2c(F)cccc21` it is 1.75%.
The figure for `CCNc1cc2c(nn1)CCN(C(=O)c1nccnc1N)C2` is -2.38%.
On to `CCNc1cc2c(nn1)CCN(C(=O)c1ccc3c(c1)OCO3)C2`, for which the cytotoxicity at 70.5 h is -4.42%.
The figure for `Cc1ccc(NC2CCN(C(=O)Cc3c(C)nn(C)c3C)CC2)nn1` is -1.21%; for `COCC(c1cccc(C(F)(F)F)c1)N(C)C(=O)c1ccco1` (configuration not stated) it is -1.02%; for `CC(C)c1cc(NC(=O)CN2CCn3c(nnc3C3CC3)C2)on1` it is 19.6%.
As for `CC(C)(C)c1cc(NC(=O)CN2CCn3c(nnc3C3CC3)C2)on1`, the cytotoxicity at 70.5 h is 3.06%.
Take `O=C(CCc1ccccc1Cl)NS(=O)(=O)c1ccc2c(c1)OCCO2`: the cytotoxicity at 70.5 h was -2.93%.
Next, `OC(COCc1ccc2c(c1)OCO2)CN1CC(n2cccn2)C1` (configuration not stated): 3.04%.
For `c1ncn(CC2CN(Cc3nc(-c4ccsc4)no3)CCO2)n1` (configuration not stated), the cytotoxicity at 70.5 h was -6.98%.
The figure for `OC(COCc1ccccc1)CN1CC(n2cccn2)C1` (configuration not stated) is -3.54%; for `Cc1nc(CN2CCN(C(=O)NC(C)c3cccnc3)CC2)cs1` (configuration not stated) it is 30.6%; for `OC(COCc1ccc(Cl)cc1)CN1CC(n2cccn2)C1` (configuration not stated) it is -2.28%.
The figure for `Cc1nc(C)n(CC2CCCN2Cc2nc(-c3ccccn3)no2)n1` (configuration not stated) is -7.25%.
Next, `CC(=O)NC(CC(=O)Nc1ccc(C)cn1)c1ccccc1` (configuration not stated): -6.79%.
With `Cc1cc(CN2CCN(C(=O)NC(C)c3cccs3)CC2)on1` (configuration not stated), the cytotoxicity at 70.5 h was -5.41%.
Next, `Cc1cc(CN2CCN(C(=O)NC(C)c3ccncc3)CC2)on1` (configuration not stated): -9.79%.
The figure for `Cc1cc(CN2CCN(C(=O)NC(C)c3ccc(C)o3)CC2)on1` (configuration not stated) is -9.49%; for `Cc1cc2n(n1)CC(CNCc1ccccc1-n1cccn1)CN2` (configuration not stated) it is -4.8%.
The figure for `COC(=O)c1cc(C(=O)N2CCC(OC)CC2)n(-c2ccccc2)n1` is -2.53%.
As to `O=C(c1ccc(-n2cccn2)nc1)N1CCCC(n2cccn2)C1` (configuration not stated), the cytotoxicity at 70.5 h is -7.62%.
The figure for `Cc1ccc(-c2noc(CN3CCOC(Cn4cccn4)C3)n2)cc1` (configuration not stated) is -3.88%.
Consider `Cc1ccccc1-c1noc(CN2CCOC(Cn3cccn3)C2)n1` (configuration not stated), for which the cytotoxicity at 70.5 h is -10.3%.
The figure for `CCc1nnc2n1CCN(Cc1ncc(-c3ccc(F)cc3)o1)C2` is -6.74%.
As for `Cc1cnn(CC2CCCN2C(=O)CCc2cscn2)c1` (configuration not stated), the cytotoxicity at 70.5 h is -13.6%.
The figure for `CCc1nnc2n1CCN(Cc1ncc(-c3ccccc3)o1)C2` is -13.5%.
The figure for `CC(C(=O)NCc1ccnc(N2CCCCCC2)c1)n1cccn1` (configuration not stated) is 17.8%; for `Cc1ccc(CNC2CCCN(Cc3noc(C4CC4)n3)C2)s1` (configuration not stated) it is 28.4%; for `Cc1cnn(CCNCc2nc(CNC(=O)c3ccccc3)no2)c1` it is 22.6%.
The figure for `CCc1nc(CN2CCCC(NCc3cnc(C)s3)C2)no1` (configuration not stated) is 22.5%.
As to `Cc1noc(CNC2CCCN(Cc3noc(C4CC4)n3)C2)n1` (configuration not stated), the cytotoxicity at 70.5 h is -2.29%.
Next, `Cc1cc(CNC2CCCN(Cc3noc(C4CC4)n3)C2)on1` (configuration not stated): 23.9%.
The figure for `CC(C)c1nc2c(n1C)CCN(Cc1cccc(OCC(N)=O)c1)C2` is 0.112%; for `Cc1ccsc1CNC1CCCN(Cc2noc(C3CC3)n2)C1` (configuration not stated) it is -2.45%.
The figure for `CCc1ccc(C(=O)N2CCN(CCO)CC2)o1` is -1.18%.
Turning to `O=C(c1cc2c(s1)CCC2)N1CCCC1c1noc(C2CC2)n1` (configuration not stated), the cytotoxicity at 70.5 h is -0.753%.
The figure for `c1coc(-c2nc(CNCCn3cccn3)cs2)c1` is -5.85%.
The figure for `CCc1nc(C2CCCN2CC(=O)N2CCc3ccccc32)no1` (configuration not stated) is -5.32%; for `c1csc(-c2nc(CNCCn3cccn3)cs2)c1` it is -7.37%.
Take `O=C(c1ccc2c(c1)CCO2)N1CCN(c2cnccn2)CC1`: the cytotoxicity at 70.5 h is -5.33%.
The figure for `O=C(Cc1ccc2c(c1)CCC2)N1CCN(c2cnccn2)CC1` is 2.45%; for `CCOc1ccccc1OC1CCN(C(=O)c2cnsn2)CC1` it is -1.79%; for `Cc1cc(C)c(CNC(=O)Cc2ccc3c(c2)CCCC3)c(=O)[nH]1` it is -7.45%.
Regarding `Cc1cc(C)c(CNC(=O)NC(C)c2ccc3c(c2)CCC3)c(=O)[nH]1` (configuration not stated), the cytotoxicity at 70.5 h worked out at 25.3%.
Next, `Cc1cc(C)c(CNC(=O)NCc2ccc3c(c2)OCCO3)c(=O)[nH]1`: 0.304%; `CCn1ccnc1CN1CCN(Cc2cccc(C#N)c2)CC1`: 21.4%; `CCc1nc(C2CCCN2CC(=O)Nc2sc(C)c(C)c2C)no1` (configuration not stated): -5.03%.
For the compound `Cc1nc(C)n(C2CCCN(C(=O)COCc3ccccc3)C2)n1` (configuration not stated), the cytotoxicity at 70.5 h was -0.931%.
Next, `O=C(Cc1cccc(F)c1)NCCNCc1cccc(O)c1`: 0.873%.
Next, `Cn1ccnc1COc1ccc(CN2CCN(CCO)CC2)cc1`: 15%; `CC(NC(=O)Cn1cccn1)c1ccc2c(c1)OCCCO2` (configuration not stated): 52.1%; `Cn1ccnc1COc1ccc(CO)cc1`: -6.37%.
Next, `O=C(NCC1CCOC1)c1cc(-c2cccc(Cl)c2)on1` (configuration not stated): -5.03%; `O=C(NCC1CCOC1)c1csc(-c2ccco2)n1` (configuration not stated): 21.2%; `Cc1cc(C(=O)N2CCCCC2C)ccc1NCC(=O)N1CCOCC1` (configuration not stated): 26.9%.
Take `CC(C)C(Sc1nnnn1-c1ccccc1)C(=O)NCc1cccnc1` (configuration not stated): the cytotoxicity at 70.5 h is -2.05%.
Next, `CCCNC(=O)CNc1ccc(C(=O)N2CCCCC2C)cc1C` (configuration not stated): -2.88%.
In the case of `Cc1cccc(-c2noc(CN3CCC(N4CCNC4=O)CC3)n2)c1`, the cytotoxicity at 70.5 h is -0.858%.
The figure for `CC(=O)Nc1nc(CN2CCCC2Cn2cncn2)cs1` (configuration not stated) is 35.6%.
The figure for `CCn1cnnc1C1CCN(C(=O)c2ccc(C(=O)OC)s2)CC1` is -10.6%.
Next, `c1ccc(OCCCN2CCN(c3ccc4nncn4n3)CC2)cc1`: 2.05%.
On to `CN(Cc1cc(-c2ccccc2)no1)C1CCCN(c2cccnn2)C1` (configuration not stated), for which the cytotoxicity at 70.5 h was -13.5%.
Next, `CCN1CCN(C2CCN(Cc3nc(-c4ccoc4)no3)CC2)C1=O`: 1.49%; `COCC(=O)N1CCN(Cc2coc(-c3cccc(F)c3)n2)CC1`: -6.62%; `COCCN1CCC(NCc2cccnc2)C1` (configuration not stated): 2.68%.
The figure for `CC(NC(=O)CNCCn1cccn1)c1ccc2c(c1)OCCO2` (configuration not stated) is -7.87%.
Next, `c1ncn(CC2CCCCN2Cc2csc(C3CCCC3)n2)n1` (configuration not stated): 33.9%.
Consider `CCc1nccn1C1CCCN(C(=O)c2ccc(C(=O)NC)nc2)C1` (configuration not stated), for which the cytotoxicity at 70.5 h is -5.35%.
As for `CCc1nc(CN2CCCN(c3nccs3)CC2)no1`, the cytotoxicity at 70.5 h was 6.55%.
The figure for `CC(=O)N1CCC[C@H]1C(=O)NCCOc1cccc(Cl)c1` is 0.931%; for `CC(C)(C)c1noc(CN2CCCN(Cc3cccs3)CC2)n1` it is -3.44%.
The figure for `Cc1cncc(C(=O)N2CCCCC2c2nc(C)cs2)c1` (configuration not stated) is 17.3%; for `CNC(=O)C1CCN(C(=O)c2cccn2Cc2cccs2)CC1` it is -8.46%.
Next, `CCN(C)S(=O)(=O)N(CC)Cc1ccc2c(c1)OCO2`: -17.8%.
Consider `Cc1nnc(NC(=O)NCc2cccnc2N(C)C)s1`, for which the cytotoxicity at 70.5 h was -8.59%.
Next, `Cc1ccccc1CS(=O)(=O)CC(=O)NC1CCCCNC1=O` (configuration not stated): -11.3%; `CC(C)Cc1noc(CN2CCN(c3nccs3)CC2)n1`: -3.87%.
The figure for `CC(Cn1cccn1)NC(=O)Nc1nnc(C2CC2)s1` (configuration not stated) is -11%.
The figure for `O=C(Nc1cc(C(F)(F)F)c[nH]c1=O)N1CCCSCC1` is -8.3%.
Consider `c1csc(N2CCCN(Cc3nc(C4CC4)no3)CC2)n1`, for which the cytotoxicity at 70.5 h is -15.8%.
The figure for `CC(=O)N1CCCC1C(=O)NCCOc1cc(C)cc(C)c1` (configuration not stated) is -30.3%.
The figure for `O=C(C1CC1)N1CCN(Cc2coc(-c3ccc(Cl)cc3)n2)CC1` is 12.1%; for `COc1ccccc1S(=O)(=O)Nc1ccc2c(C(=O)O)c[nH]c2c1` it is -6.86%; for `COC(=O)C(NC(=O)C(C)C)c1cc(F)ccc1F` (configuration not stated) it is -20.7%.
The figure for `CCNc1cc2c(nn1)CCN(C(=O)c1cccc3c1OCCO3)C2` is -9.67%; for `Cn1cccc1C(=O)Nc1cc(F)ccc1OCC1CCCO1` (configuration not stated) it is -17.4%.
`O=C(Nc1cc(F)ccc1OCC1CCCO1)N1CCCC1` (configuration not stated): the cytotoxicity at 70.5 h was -17.1%.
Consider `Cc1nc(C2CCCN(C(=O)CCCn3ccnc3C)C2)no1` (configuration not stated), for which the cytotoxicity at 70.5 h was -11.8%.
For the compound `Cc1nc(C2CCCN(C(=O)c3ccc(Cn4cccn4)o3)C2)no1` (configuration not stated), the cytotoxicity at 70.5 h was -12.8%.
Next, `Clc1snnc1CN1CCOC(CNc2cccnn2)C1` (configuration not stated): -21.7%.
Next, `CN(C)c1ccc(CNc2cncc(-n3cccn3)n2)cc1`: -4.47%.
Next, `Cc1nc(C)n(CC2CCCN2CC(=O)Nc2ccnn2C(C)C)n1` (configuration not stated): 17%.
